Measurements reported in ChEMBL document CHEMBL3259683, “Carbonic anhydrase inhibitors. Inhibition of human cytosolic isoforms I and II with (reduced) Schiff's bases incorporating sulfonamide, carboxylate and carboxymethyl moieties” (Bioorg Med Chem, 2014).

Legend:
Carbonic anhydrase 1 = Carbonic anhydrase 1 (Homo sapiens, UniProt P00915); assay: Inhibition of human carbonic anhydrase 1-catalyzed CO2 hydration preincubated for 10 mins by stopped-flow assay
[1] = Solubility of the compound in water; assay type: physicochemical; conditions: buffer
Carbonic anhydrase 2 = Carbonic anhydrase 2 (Homo sapiens, UniProt P00918); assay: Inhibition of human carbonic anhydrase 2-catalyzed CO2 hydration preincubated for 10 mins by stopped-flow assay
Homo sapiens = species on record: Homo sapiens; assay: Selectivity ratio of Ki for human carbonic anhydrase 2 to Ki for human carbonic anhydrase 1

Carbonic anhydrase 1, sequence (P00915 whole entry): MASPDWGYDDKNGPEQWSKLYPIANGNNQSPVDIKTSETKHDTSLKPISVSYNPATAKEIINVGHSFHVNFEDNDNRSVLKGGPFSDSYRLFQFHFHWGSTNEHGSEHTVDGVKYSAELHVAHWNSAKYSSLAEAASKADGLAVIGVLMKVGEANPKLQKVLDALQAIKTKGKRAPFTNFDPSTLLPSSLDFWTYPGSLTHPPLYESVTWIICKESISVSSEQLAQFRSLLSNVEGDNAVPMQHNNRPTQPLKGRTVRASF

Row | Compound | Ki (Carbonic anhydrase 1) | solubility [1] | Ki (Carbonic anhydrase 2) | Ratio Ki (Homo sapiens)
1 | COC(=O)c1ccc(NCc2ccc(O)cc2)cc1 | 0.209 µM | soluble | – | –
2 | NS(=O)(=O)c1ccc(CCNCc2ccccc2)cc1 | – | soluble | – | –
3 | COC(=O)c1ccc(/N=C/c2ccc(C(C)(C)C)cc2)cc1 | 7.46 µM | soluble | – | –
4 | CC(C)(C)c1ccc(/C=N/c2ccc(C(=O)O)cc2)cc1 | 8.27 µM | soluble | – | –
5 | COC(=O)c1ccc(NCc2ccc(C(C)(C)C)cc2)cc1 | 0.251 µM | soluble | – | –
6 | COc1ccc(O)c(/C=N/c2ccc(C(=O)O)cc2)c1 | 1.29 µM | soluble | – | –
7 | CC(C)(C)c1ccc(/C=N/CCc2ccc(S(N)(=O)=O)cc2)cc1 | 0.665 µM | soluble | 0.0112 µM | –
8 | COC(=O)c1ccc(NCc2cc(OC)ccc2O)cc1 | 0.228 µM | soluble | – | 23
9 | NS(=O)(=O)c1ccc(/N=C/c2ccccc2)cc1 | 0.311 µM | soluble | – | –
10 | O=C(O)c1ccc(/N=C/c2ccccc2)cc1 | 1.23 µM | soluble | – | –
11 | CC(C)(C)c1ccc(CNc2ccc(C(=O)O)cc2)cc1 | 0.266 µM | soluble | – | –
12 | O=C(O)c1ccc(/N=C/c2ccc(O)cc2)cc1 | – | soluble | – | –
13 | COC(=O)c1ccc(/N=C/c2cc(OC)ccc2O)cc1 | 7.45 µM | soluble | – | –
14 | COC(=O)c1ccc(/N=C/c2ccccc2)cc1 | 8.6 µM | soluble | – | –
15 | COC(=O)c1ccc(/N=C/c2ccc(O)cc2)cc1 | 1.04 µM | soluble | – | –
16 | NS(=O)(=O)c1ccc(CC/N=C/c2ccccc2)cc1 | – | soluble | – | –

Results, then the compound that gave them:

Row | Ki (Carbonic anhydrase 1) | solubility [1] | Ki (Carbonic anhydrase 2) | Ratio Ki (Homo sapiens) | Compound
17 | 0.029 µM | soluble | 0.702 µM | – | NS(=O)(=O)c1ccc(NCc2ccc(O)cc2)cc1
18 | 0.0235 µM | soluble | – | – | COc1ccc(O)c(CNc2ccc(S(N)(=O)=O)cc2)c1
19 | 0.0595 µM | soluble | – | – | Cl.NS(=O)(=O)c1ccc(CNCc2ccc(O)cc2)cc1
20 | 0.0303 µM | soluble | – | – | Cl.NS(=O)(=O)c1ccc(CNCc2ccccc2)cc1
21 | 0.07 µM | soluble | 0.0126 µM | – | COc1ccc(O)c(/C=N/CCc2ccc(S(N)(=O)=O)cc2)c1
22 | 0.056 µM | soluble | 0.0515 µM | – | COc1ccc(O)c(CNCCc2ccc(S(N)(=O)=O)cc2)c1
23 | 0.092 µM | soluble | – | – | COc1ccc(O)c(/C=N/Cc2ccc(S(N)(=O)=O)cc2)c1.Cl
24 | 0.105 µM | soluble | 0.043 µM | – | NS(=O)(=O)c1ccc(CC/N=C/c2ccc(O)cc2)cc1
25 | 0.0255 µM | soluble | – | – | CC(C)(C)c1ccc(CNCc2ccc(S(N)(=O)=O)cc2)cc1.Cl
26 | 0.0503 µM | soluble | 0.0086 µM | – | CC(C)(C)c1ccc(CNCCc2ccc(S(N)(=O)=O)cc2)cc1
27 | 0.085 µM | soluble | – | – | CC(C)(C)c1ccc(/C=N/c2ccc(S(N)(=O)=O)cc2)cc1
28 | 0.093 µM | soluble | – | – | Cl.NS(=O)(=O)c1ccc(C/N=C/c2ccccc2)cc1
29 | 0.0187 µM | soluble | – | – | CC(C)(C)c1ccc(CNc2ccc(S(N)(=O)=O)cc2)cc1
30 | 0.0519 µM | soluble | – | – | COc1ccc(O)c(CNCc2ccc(S(N)(=O)=O)cc2)c1.Cl
31 | 0.072 µM | soluble | – | – | CC(C)(C)c1ccc(/C=N/Cc2ccc(S(N)(=O)=O)cc2)cc1.Cl
32 | 0.2 µM | soluble | – | 111 | COC(=O)c1ccc(NCc2ccccc2)cc1
33 | 0.0921 µM | soluble | 0.236 µM | – | NS(=O)(=O)c1ccc(CCNCc2ccc(O)cc2)cc1
34 | 0.0567 µM | soluble | – | – | O=C(O)c1ccc(NCc2ccccc2)cc1
35 | 0.189 µM | soluble | – | – | COc1ccc(O)c(CNc2ccc(C(=O)O)cc2)c1
36 | 0.116 µM | soluble | – | – | O=C(O)c1ccc(NCc2ccc(O)cc2)cc1
37 | 0.08 µM | soluble | 0.0111 µM | – | NS(=O)(=O)c1ccc(/N=C/c2ccc(O)cc2)cc1
38 | 0.052 µM | soluble | – | – | COc1ccc(O)c(/C=N/c2ccc(S(N)(=O)=O)cc2)c1
